# The source made the active and inactive calls. The calls are words filed in the database; no cut-off is given here.
# What was measured:
# [1] = Inhibition of bovine thymus p56 LCK activity; parameters: species or system Bos taurus
# [2] = organism: Bos taurus; assay: Inhibition of bovine thymus p56 LCK activity by noncompetitive inhibition assay
# [3] = Inhibition of bovine thymus p56 LCK activity by competitive inhibition assay; parameters: species or system Bos taurus
Compound,IC50 [1] [µg/mL],Activity [2],Ki [3] [µM]
Cc1cc(O)c2c(c1)C(=O)c1cc(O)cc(O[C@@H]3O[C@H](CO)[C@@H](O)[C@H](O)[C@H]3O)c1C2=O [EMODIN 8-O-BETA-D-GLUCOPYRANOSIDE],> 800,,
Cc1cc(O)c2c(c1)C(=O)c1cc(O)cc(O)c1C2=O [EMODIN],5,Active,13
COc1cc(O)c2c(c1)C(=O)c1cc(C)cc(O)c1C2=O [PHYSCION],> 800,,
